According to US20250177364A1, “COMBINATION THERAPIES FOR BREAST CANCER” (Genentech, Inc., priority 2022, published 2025):

Legend:
[1] = test system: ER-positive, HER2-negative ABC; conditions: 30 mg daily; previously treated patients; cited from earlier work
[2] = test system: ZR-75-30 cells; assay: Anti-proliferative activity, growth-rate (GR) inhibition method, CyQUANT; format: cell-based; conditions: 6 days after drug treatment, control GR=1, giredestrant 0.3 μM, trastuzumab and pertuzumab 30 μg/ml each
Protocol: FIG. 3 depicts in vitro anti-proliferative activity of ER inhibition by giredestrant, and/or HER2 inhibition by the combination of trastuzumab and pertuzumab, assessed using the growth rate (GR) method in Example 1. Growth rate (GR) under control conditions is set to 1; lower growth rates equate to a greater anti-proliferative effect. Individual points reflect GR values at 0.3 μM giredestrant, and at […] trastuzumab and pertuzumab.
Materials and Methods: ER+/HER2+ cell lines UACC-812, HCC1419 and ZR-75-30 cells were plated in 50 μL culture media in 384-well plates. Cells were incubated in humidified incubator overnight (37 degree, 5% CO2). Test materials were dispensed into 384-well plate on day 1; giredestrant was evaluated as a 9-point dose response (3-fold dose dilutions from a maximum concentration of 300 nM), and traztuzumab and pertuzumab were evaluated as a fixed dose at 30 μg/ml each. Fluorescence-based cell proliferation (CyQUANT®; ThermoFisher Scientific, Cat #C7026) readings were taken at day 1 to establish a baseline, and at 6 days following drug treatment. Analysis of the drug response was performed using the growth-rate (GR) inhibition method to avoid biases between slow and fast-growing lines (Hafner et al., Nat Methods 2016 June; 13 (6): 521-7)). […]

[3] = test system: ER-positive BC cell lines; conditions: multiple ER-positive BC cell lines, including cells with ER mutations; cited from earlier work
[4] = test system: ER-positive, HER2-negative EBC; conditions: neoadjuvant; cited from earlier work
[5] = test system: UACC-812 cells; assay: Anti-proliferative activity, growth-rate (GR) inhibition method, CyQUANT; format: cell-based; conditions: 6 days after drug treatment, control GR=1, giredestrant 0.3 μM, trastuzumab and pertuzumab 30 μg/ml each
Protocol: (§1) FIG. 3 depicts in vitro anti-proliferative activity of ER inhibition by giredestrant, and/or HER2 inhibition by the combination of trastuzumab and pertuzumab, assessed using the growth rate (GR) method in Example 1. Growth rate (GR) under control conditions is set to 1; lower growth rates equate to a greater anti-proliferative effect. Individual points reflect GR values at 0.3 μM giredestrant, and at […] trastuzumab and pertuzumab. Materials and Methods: ER+/HER2+ cell lines UACC-812, HCC1419 and ZR-75-30 cells were plated in 50 μL culture media in 384-well plates. Cells were incubated in humidified incubator overnight (37 degree, 5% CO2). Test materials were dispensed into 384-well plate on day 1; giredestrant was evaluated as a 9-point dose response (3-fold dose dilutions from a maximum concentration of 300 nM), and traztuzumab and pertuzumab were evaluated as a fixed dose at 30 μg/ml each. Fluorescence-based cell proliferation (CyQUANT®; ThermoFisher Scientific, Cat #C7026) readings were taken at day 1 to establish a baseline, and at 6 days following drug treatment. Analysis of the drug response was performed using the growth-rate (GR) inhibition method to avoid biases between slow and fast-growing lines (Hafner et al., Nat Methods 2016 June; 13 (6): 521-7)).

[6] = test system: HCC1419 cells; assay: as above; format: cell-based; conditions: 6 days after drug treatment, control GR=1, giredestrant 0.3 μM, trastuzumab and pertuzumab 30 μg/ml each
Protocol: as §1

[7] = test system: ER (ligand-binding domain of wild-type and mutant ER); conditions: cited from earlier work

## C[C@@H]1Cc2c([nH]c3ccccc23)[C@@H](c2c(F)cc(NC3CN(CCCF)C3)cc2F)N1CC(F)(F)CO [giredestrant, 3-((1R,3R)-1-(2,6-difluoro-4-((1-(3-fluoropropyl)azetidin-3-yl)amino)phenyl)-3-methyl-1,3,4,9-tetrahydro-2H-pyrido[3,4-b]indol-2-yl)-2,2-difluoropropan-1-ol]
[1]
  Clinical activity: promising signs of clinical activity
  Safety: safe
[2]
  Growth rate (GR) value: > 0.75
[3]
  Inhibition of proliferation: potently inhibits
[4]
  Ki67 suppression and complete cell cycle arrest versus anastrozole: superior to anastrozole
[5]
  Growth rate (GR) value: < 0.5
[6]
  Growth rate (GR) value: < 0.5
[7]; Liang et al.
  Potency compared to fulvestrant, tamoxifen and other oral SERDs: higher potency
[7]; competes with estrogens
  Potency of competitive binding to the ER: low nanomolar potency
